According to PMC2898832, “Active site plasticity revealed from the structure of the enterobacterial N-ribohydrolase RihA bound to a competitive inhibitor” (2010):

Biological target: T1, RihA (Escherichia coli, UniProt P41409)
T1 construct: full-length rihA (936 bp) from E. coli K12 derivative DH5α; N-terminal His-tag removed with thrombin; tetramer
Assay: X-ray co-crystal structure at […] Å; KI from competitive inhibition of uridine hydrolysis by purified enzyme
Format: biochemical

T1 sequence (P41409 whole entry): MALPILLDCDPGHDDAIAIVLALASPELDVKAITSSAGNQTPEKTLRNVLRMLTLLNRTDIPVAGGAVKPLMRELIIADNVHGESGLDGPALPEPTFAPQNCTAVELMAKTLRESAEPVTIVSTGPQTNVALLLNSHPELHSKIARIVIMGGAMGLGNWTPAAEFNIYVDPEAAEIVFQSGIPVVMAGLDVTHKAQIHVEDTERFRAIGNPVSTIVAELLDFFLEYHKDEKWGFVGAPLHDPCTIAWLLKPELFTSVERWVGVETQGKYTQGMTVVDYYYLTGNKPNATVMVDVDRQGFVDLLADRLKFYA

SMILES: Nc1ccc([C@@H]2N[C@H](CO)[C@@H](O)[C@H]2O)cc1N [DAPIR]
- Ki: 85 ± 7 µM
